These results are taken from a melting point compilation (Tetko et al.; mined from patent text by program, amines drawn as free bases though some values may be those of a salt).

Molecule `CCOC(=O)C(=O)NC1N=C2C(=Cc3ccccc32)S1` (centres undefined) had a melting point of 226 to 228 °C. In the case of `COC(=O)C1=C(C)NC(C)=C(C(=O)OC(C)C)C1c1ccccc1[N+](=O)[O-]` (centres undefined) it was 174 °C; in that of `CNC(=O)CCCCCN(C)S(=O)(=O)c1ccc(Cl)c(COc2cccc3ccc(C)nc23)c1Cl`, 110 to 112 °C; in that of `O=C1CCC(N2Cc3c(OCc4ccc5ncccc5c4)cccc3C2=O)C(=O)N1` (centres undefined), 267 to 269 °C. Take `N#Cc1ccc2cc(CBr)ccc2c1`: the melting point lay in the range of 134 to 137 °C. Next, `CCOC(=O)C(=C1SC(=O)N(CC(=O)O)C1=O)c1csc(NC(C)=O)n1`: 288 to 290 °C; `Cc1ccc(C(=O)O)c(Sc2nc(C)c(CC(=O)O)s2)n1`: 223 to 225 °C. In the case of `CCN(CC)c1ccc(C=O)c([N+](=O)[O-])c1` it was 75 to 77 °C. Next, `O=C(Nc1ccc2cc(CN3CCCCC3)ccc2c1)c1ccc(-c2ccc(Cl)cc2)cc1`: 220 to 222 °C; `CN1C(=S)N(c2ccc(C#N)c(C(F)(F)F)c2)C(=O)C1(CF)CF`: 122 to 123 °C. Consider `COc1cc(COc2cc(C=O)n(-c3ccccc3)n2)ccc1OCc1nc(-c2ccco2)oc1C`, for which the melting point fell in the range of 103 to 104 °C. In the case of `CC(C)(C)c1ccc(COc2cc3c(cc2C(=O)c2ccc(C(=O)O)cc2)C(C)(C)CCC3(C)C)cc1` it was 218 to 219 °C; in that of `CC(=O)c1ccc(SCC(=O)O)cc1`, 151 to 153 °C; in that of `CC(c1ccc(-c2ccccc2)c(F)c1)c1cc(CO)no1` (centres undefined), 127 to 128 °C.

For the molecule `N#CC1=C(C#N)NC(c2ccccc2)C(O)=N1` (centres undefined), the melting point is 222 to 224 °C. In turn, `CCCCc1nc(Cl)c(C(=O)O)n1Cc1ccc(-c2ccccc2I)cc1` yielded a melting point of 175 °C. Consider `Cc1c(Cc2cc(F)cc(Cl)c2)sc2c(-c3cccc(C(=O)NCCO)c3)cccc12`, for which the melting point fell in the range of 146 to 147 °C. The molecule `COc1ccc(F)c([N+](=O)[O-])c1C` yielded a melting point of 38 to 40 °C. In the case of `C[C@H]1CCCC(C)(C)[C@@H]1C(=O)O` it was 44 to 54 °C. `O=C1C=C(Nc2ccccc2F)CCC1` displayed a melting point of 116 to 118 °C.

`O=C(O)CC1=CC2(Cc3ccc(Br)cc3)C(=O)N(c3cc(Cl)cc(Cl)c3)C(=O)N2C1` (centres undefined) returned a melting point of 102 °C. In turn, `O=c1cc2c3cccnc3sn2c2ccccc12` gave a melting point greater than 350 °C.

With `CCC#CCCOc1cc(C=O)ccc1OC`, the melting point was in the range of 86.5 to 87.5 °C.

Molecule `CC(=O)OCc1c(Br)cccc1N1CCc2c(cc3n2CCCC3)C1=O` registered a melting point of 176 to 178 °C.

Molecule `COc1ccc(CCCOCCn2cnc3c(N)nc4ccccc4c32)cc1` came in with a melting point of 116 to 118 °C. With `CC(C)(C)[Si](Oc1ccc2[nH]c(=O)oc(=O)c2c1)(c1ccccc1)c1ccccc1`, the melting point came out at 185 °C. Next, `O=C(O)C1CCc2c(-c3ccc(Cl)cc3)noc2C1` (centres undefined): 227 to 228 °C; `COc1ccc(-c2cccc3c2C2(COc4cc5c(cc42)OCCO5)C(=O)N3Cc2ccccn2)cc1` (centres undefined): 205 to 206 °C. In the case of `Cc1[nH]c(C=O)c(C)c1C(=O)NCC1CCCCN1` (centres undefined) it was 107 to 115 °C; in that of `[N-]=[N+]=Nc1c(F)c(F)c(C(=O)O)c(F)c1F`, 140 to 141 °C; in that of `CN(C)C=CC(=O)c1ccc(OCC(O)CN2CCN(c3ccc(Cl)cc3)CC2)cc1` (centres undefined), 185 °C. `NS(=O)(=O)c1cnccc1C1=NOCCO1` displayed a melting point of 163 to 164 °C. Molecule `COC(=O)c1cccc2nc(OC)n(Cc3ccc(-c4ccccc4-c4nnn[nH]4)cc3)c12` yielded a melting point of 165 to 166 °C. On to `COC(=O)C1=C(C)NC(C)=C(C(=O)OC)C1c1cccc(N(C)C(=NC#N)NCCCN2CCC(c3ccccc3)CC2)c1`, for which the melting point was in the range of 85 to 90 °C. Regarding `Cc1ccc(-c2c(Cl)nc(-c3ccccc3)nc2Cl)cc1`, the melting point lay in the range of 165 to 166 °C. In the case of `CC(C)(C#N)c1cc(O)cc2cc(-c3ccc(O)cc3)oc12` it was 284 °C; in that of `O=C(NCC(F)(F)F)c1cccc(CN2CCN(c3ccc(NC(=O)c4ccccc4-c4ccc(C(F)(F)F)cc4)cc3)CC2)c1`, 205 to 207 °C. In the case of `CCOC(=S)c1ccc2sc(CCl)c(C)c2c1` it was 95 to 96 °C.

`CCNC(=O)C1=C(OC(C)C)c2cc(OC)ccc2S1=O` (centres undefined) returned a melting point of 88 to 90 °C. `O=C(c1ccccc1)c1cc(-c2ccc(Cl)cc2)c(N2CCOCC2)s1` displayed a melting point of 180 °C. Next, `COc1cc(OC)cc(C(=O)N2CCc3cc(OCc4ccccc4)c(OC)cc3C2=O)c1`: 180 to 181 °C; `CCOC(=O)CN1C(=O)c2cccc3c(Sc4ccccc4)ccc(c23)C1=O`: 132 to 134 °C.

The molecule `CC(C)Nc1nc(-c2nc[nH]n2)cc(Cl)c1-c1c(F)cccc1Cl` showed a melting point of 152 °C. In the case of `CC(C)(CO)Nc1nc(SCc2cccc(F)c2F)nc2nc(N)sc12` it was 231 to 234 °C; in that of `CCCCNS(=O)(=O)c1ccc(N2CCC(NC[C@H](O)c3ccc(O)c(NS(C)(=O)=O)c3)CC2)cc1`, 71 to 75 °C. `COc1cc(-c2nn(C)c(C(F)(F)F)c2Cl)c(F)cc1[N+](=O)[O-]` returned a melting point of 115 to 116 °C. Take `CC(C)(C)OC(=O)NC(=N)NC(=O)OC(C)(C)C`: the melting point came to 144 °C. Next, `CCCc1ccc(-n2nc(Cl)cc2-c2ccc(S(C)(=O)=O)cc2)cc1Cl`: 119 to 122 °C; `COc1cc(OC)nc(NC(=O)NS(=O)(=O)c2ncccc2C(CCl)OC(C)=O)n1` (centres undefined): 159 to 161 °C; `c1cnc(N2CCN(Cc3n[nH]c4ccccc34)CC2)nc1`: 129 to 130 °C. Next, `NS(=O)(=O)c1c(Cl)cccc1CN1CCOC1=O`: 200 to 201 °C. Next, `COC(=O)c1cccc(-c2ccccc2OC2OC(C)C(O)C(O)C2O)c1` (centres undefined): 137 to 140 °C; `C=C(C)C(=O)OCCCOc1ccc2cc(OC(=O)C(=C)C)ccc2c1`: 68 °C; `O=C1C(Cc2ccccc2C(F)F)c2ccccc2C12COc1cc3c(cc12)OCCO3` (centres undefined): 191 to 193 °C. Take `CP(C)(=O)CN1CCC(Oc2c(F)c(F)c(F)c(F)c2F)CC1`: the melting point is 120 to 123 °C. In the case of `CC(C)c1cc(C(C)C)c(OCC(=O)O)c(C(C)C)c1` it was 105 to 108 °C.

Take `CC(=O)c1ccc(NS(C)(=O)=O)c(Cl)c1`: the melting point is 129 to 131 °C. Take `CC(C)(C)n1nc(Nc2ccccc2)c(C#N)c1N`: the melting point was 123 to 125 °C. In the case of `C=C(CCC(C)C1CCC2(C)C3CCC4C(C)(C)C(O)CCC45CC35CCC12C)C(C)C` (centres undefined) it was 123 to 124 °C. For the molecule `Cc1cnc2c(c1)CCCC2C(N)=S` (centres undefined), the melting point came out at 149 °C. The molecule `c1cncc(-c2cncnc2)c1` came in with a melting point of 101 to 103 °C.

In turn, `Cc1nc2cc(Cl)ccc2c(=O)n1C1CCC(=O)NC1=O` (centres undefined) showed a melting point of 291 to 293 °C. With `CN(CCO)Cn1nc(-c2ccncc2)n(-c2ccccc2)c1=S`, the melting point lay in the range of 173 to 174 °C. In the case of `CNC(=O)N(O)Cc1cccc(Nc2ccccc2C(=O)OC)c1C` it was 173 to 175 °C; in that of `CCCOC(=O)Oc1ccc(-c2ccc(C#N)cc2)cc1`, 70.2 to 70.9 °C.

`C=CCc1c(NC(=O)C(F)(F)F)ccc2c(=O)cc(C(=O)OCC)oc12` registered a melting point of 136 to 137 °C. Next, `COC(=O)c1cc(SC#N)c(N)cc1OC`: 184 to 185 °C. Next, `CC(=O)NCC1CN(Cc2ccccc2)CCO1` (centres undefined): 110 to 111 °C; `Cc1ccc(SC(CCCCCc2ccc(Cl)cc2)C(=O)O)cc1` (centres undefined): 58 to 61 °C. Next, `COc1cccc(Cn2cc3c(-c4cccc(C(=O)NCCO)c4)cccc3n2)n1`: 104 to 105 °C; `Oc1cccc(Cc2n[nH]c3ccccc23)c1`: 170 to 172 °C. With `O=C(O)COc1ccc(SCc2ccc(OCc3cc(Cl)ccc3Cl)cc2)c2c1CCCO2`, the melting point was in the range of 98 to 100 °C.

For the molecule `COc1ccc(CNC(=O)c2cc3c(=O)n(CCOc4ccc(Br)cc4)c(=O)n(C)c3s2)cc1`, the melting point lay within 184 to 185 °C.

In turn, `CC(=O)N[C@@H]1c2cc(C)ccc2OC(C)(C)[C@H]1O` (relative stereo) returned a melting point of 188 to 190 °C. In the case of `Clc1ccc2c(c1)c(-c1ccccc1)nc1nccn12` it was 270 to 272 °C; in that of `N#Cc1cc(-c2ccoc2)c2ccc(COc3cc(F)cc(-c4ccoc4)c3)cc2n1`, 156 to 159 °C. With `CCC(C(N)=O)N(Cc1ccc2nc(NCCCN3CCOCC3)n(Cc3nc(C)ccc3OC)c2c1)c1cc(C)cc(C)c1` (centres undefined), the melting point came out at 130 °C. Next, `Nc1nc(=O)n(S(=O)(=O)c2ccc(Cl)cc2)cc1F`: 174 to 178 °C; `O=C(CCCl)c1cc2ccccc2o1`: 116 to 118 °C. The molecule `OCC1OC(n2cnc3c(NCC4(c5cccc(Cl)c5)CCC4)ncnc32)C(O)C1O` (centres undefined) came in with a melting point of 92 to 98 °C. Next, `C#CCNC(=O)C=C(C)N`: 137 to 138 °C; `O=C(C1CCC1)N1CCC2(CC1)Cc1ccccc1O2`: 91 to 93 °C. In turn, `COc1cc(OC)nc(NC(=O)NS(=O)(=O)Nc2nc(OC)cc(OC)n2)n1` displayed a melting point of 210 °C. In the case of `Cc1ccc(F)cc1C(=O)Nc1ccc(C(=O)N2Cc3ccccc3Oc3ccccc32)cn1` it was 180 to 186 °C.

`Cc1c(NC(=O)c2ccc(CC(=O)C3CCCO3)cc2)ccc2cc(CN3CCCC3)cnc12` (centres undefined): the melting point stood at 102 °C. In turn, `O=C1C(C2=NCCS2)c2ccccc2N1C1=NCCS1` (centres undefined) registered a melting point of 204 to 205 °C. For the molecule `C=CCc1cc(Cl)c2ccccc2c1O`, the melting point fell in the range of 55 to 57 °C.

`CCC1(CC)c2cc(Br)ccc2-c2ccc(I)cc21` returned a melting point of 162 to 164 °C. Next, `COc1ccccc1C1(O)C(O)CCC2CN(Cc3ccccc3)CC21` (centres undefined): 140 °C.
